Test results taken from ChEMBL document CHEMBL1201862, “PubChem BioAssay data set” (2004).
“And” between values parts separate entries of the source, which are not always exact repeats. Equal values may be shown once.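 Five compound concentrations were applied to cells in 96-well plates for 48 hours; endpoints were derived by simple linear interpolation of the resulting dose-response curve. GI50 = concentration required for 50% inhibition of growth.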 The source made the active and inactive calls. No stated cut-off is given here; in the data, active = GI50 up to about 1.1 µM and inactive = higher.

Experiments:
Experiment in all cases: NCI tumour cell line growth inhibition, 48 h
CCRF-CEM = test system: CCRF-CEM
SK-MEL-2 = test system: SK-MEL-2
U-251 = test system: U-251
OVCAR-5 = test system: OVCAR-5
LOX IMVI = test system: LOX IMVI
NCI-H226 = test system: NCI-H226
SF-539 = test system: SF-539
RXF 393 = test system: RXF 393
786-0 = test system: 786-0
SNB-75 = test system: SNB-75
SK-MEL-5 = test system: SK-MEL-5
EKVX = test system: EKVX
HT-29 = test system: HT-29
MDA-N = test system: MDA-N
CAKI-1 = test system: CAKI-1
HOP-92 = test system: HOP-92
MOLT-4 = test system: MOLT-4
OVCAR-4 = test system: OVCAR-4
IGROV-1 = test system: IGROV-1
UACC-62 = test system: UACC-62

| SMILES | GI50 (CCRF-CEM) | GI50 (SK-MEL-2) | GI50 (U-251) | GI50 (OVCAR-5) | GI50 (LOX IMVI) | GI50 (NCI-H226) | GI50 (SF-539) | GI50 (RXF 393) | GI50 (786-0) | GI50 (SNB-75) | GI50 (SK-MEL-5) | GI50 (EKVX) | GI50 (HT-29) | GI50 (MDA-N) | GI50 (CAKI-1) | GI50 (HOP-92) | GI50 (MOLT-4) | GI50 (OVCAR-4) | GI50 (IGROV-1) | GI50 (UACC-62) |
| --- | --- | --- | --- | --- | --- | --- | --- | --- | --- | --- | --- | --- | --- | --- | --- | --- | --- | --- | --- | --- |
| N#CC(C/C=C/c1ccccc1)NNC(=O)c1c(Cl)c(Cl)c(Cl)c(Cl)c1-c1nc2cc(C(=O)c3ccccc3)ccc2[nH]1 (stereo not given) | 5.79 µM (inactive) | 17.5 µM (inactive) | 12.5 µM (inactive) | 28.9 µM (inactive) | 13.5 µM (inactive) | 17.7 µM (inactive) | 9.86 µM (inactive) | 9.53 µM (inactive) | 16.4 µM (inactive) | 17.4 µM (inactive) | 10.2 µM (inactive) | 15.1 µM (inactive) | 16.1 µM (inactive) | 3.24 µM (inactive) | 31.4 µM (inactive) | 16.2 µM (inactive) | 13.4 µM (inactive) | 14 µM (inactive) | 18.2 µM (inactive) | – |
| COC(=O)/C=C\C(C#N)(C#N)/N=C/c1sccc1C | 1 µM (active) | 15.8 µM (inactive) | 10 µM (inactive) | 5.26 µM (inactive) | 1.3 µM (inactive) | 3.33 µM (inactive) | – | 2 µM (inactive) | 1.94 µM (inactive) | 14.8 µM (inactive) | 1.55 µM (inactive) | 3.59 µM (inactive) | 1.73 µM (inactive) | 3.59 µM (inactive) | 1.93 µM (inactive) | 1.91 µM (inactive) | 1.2 µM (inactive) | 4.53 µM (inactive) | 15 µM (inactive) | 6.62 µM (inactive) |
| COC(=O)/C(=N/NC(N)=O)C(C(=O)C(=O)Nc1ccc(C)cc1)c1nc2ccc(C(=O)c3ccccc3)cc2nc1O (stereo not given) | 49 µM (inactive) | > 100 µM (inactive) | > 100 µM (inactive) | > 100 µM (inactive) | > 100 µM (inactive) | 40.9 µM (inactive) | 85.1 µM (inactive) | 61.9 µM (inactive) | > 100 µM (inactive) | 39.7 µM (inactive) | > 100 µM (inactive) | 33.4 µM (inactive) | 80.9 µM (inactive) | 64.1 µM (inactive) | 88.9 µM (inactive) | 30.3 µM (inactive) | 50.4 µM (inactive) | > 100 µM (inactive) | 23.7 µM (inactive) | 51.4 µM (inactive) |
| CCCCCCCC(=O)NC(C)(C)C(=O)NCC(=O)NC(CC(C)C)C(=O)NC(C)(C)C(=O)NCC(=O)NCC(=O)NC(CC(C)C)C(=O)NC(C)(C)C(=O)NCC(=O)NC(C(=O)NC(CO)CC(C)C)C(C)CC (stereo not given) | 4.26 µM (inactive) | 2.82 µM (inactive) | 2.39 µM (inactive) | 3.66 µM (inactive) | 3.53 µM (inactive) | 4.5 µM (inactive) | – | 4.05 µM (inactive) | 4.61 µM (inactive) | 3.64 µM (inactive) | 3.85 µM (inactive) | 3.63 µM (inactive) | 4.05 µM (inactive) | 4 µM (inactive) | 4.12 µM (inactive) | 3.15 µM (inactive) | 3.73 µM (inactive) | 4.01 µM (inactive) | 3.84 µM (inactive) | 4.14 µM (inactive) |
| CC(=O)NNc1nc(C)c(C(/C=C/c2ccccc2O)=N/N=C(N)N)s1 | > 100 µM (inactive) | > 100 µM (inactive) | > 100 µM (inactive) | > 100 µM (inactive) | > 100 µM (inactive) | > 100 µM (inactive) | > 100 µM (inactive) | > 100 µM (inactive) | > 100 µM (inactive) | > 100 µM (inactive) | > 100 µM (inactive) | 93.8 µM (inactive) | > 100 µM (inactive) | > 100 µM (inactive) | > 100 µM (inactive) | > 100 µM (inactive) | > 100 µM (inactive) | > 100 µM (inactive) | > 100 µM (inactive) | > 100 µM (inactive) |
| CCOC(=O)c1c(N2CCOCC2)[nH]c(=O)c(C(c2cccs2)c2c(O)c(C(=O)OCC)c(N3CCOCC3)[nH]c2=O)c1O | > 100 µM (inactive) | > 100 µM (inactive) | > 100 µM (inactive) | > 100 µM (inactive) | > 100 µM (inactive) | > 100 µM (inactive) | > 100 µM (inactive) | > 100 µM (inactive) | > 100 µM (inactive) | > 100 µM (inactive) | > 100 µM (inactive) | > 100 µM (inactive) | > 100 µM (inactive) | > 100 µM (inactive) | > 100 µM (inactive) | > 100 µM (inactive) | > 100 µM (inactive) | > 100 µM (inactive) | – | > 100 µM (inactive) |
| O=C1/C(=C/c2ccc(Cl)cc2)CCC1CNc1ccc(Cl)cc1 (stereo not given) | 0.828 µM (active) | 29.2 µM (inactive) | 9.71 µM (inactive) | 25.2 µM (inactive) | 0.673 µM (active) | 28.4 µM (inactive) | 7.76 µM (inactive) | 11.6 µM (inactive) | 2.26 µM (inactive) | 32.3 µM (inactive) | 3.33 µM (inactive) | 10.7 µM (inactive) | 3.67 µM (inactive) | 11.8 µM (inactive) | 7.55 µM (inactive) | 19.3 µM (inactive) | 2.29 µM (inactive) | 18.9 µM (inactive) | 6.12 µM (inactive) | 0.41 µM (active) |
| FC(F)(F)c1ccc2nc(Sc3ccccn3)cnc2c1 | 2.94 µM (inactive) | 15.9 µM (inactive) | 18.8 µM (inactive) | > 100 µM (inactive) | 40.6 µM (inactive) | 26.2 µM (inactive) | 16.7 µM (inactive) | 19.1 µM (inactive) | 23.5 µM (inactive) | 29.5 µM (inactive) | 20.7 µM (inactive) | 49.2 µM (inactive) | 51.8 µM (inactive) | 69.2 µM (inactive) | 62.4 µM (inactive) | 89.1 µM (inactive) | 36.8 µM (inactive) | 79.8 µM (inactive) | 75.5 µM (inactive) | 29.2 µM (inactive) |
| O=C1N/C(=N/N=C\C(O)C(O)C(O)CO)N/C1=C/c1ccc(Cl)cc1 (stereo not given) | 25.8 µM (inactive) and 21.5 µM (inactive) | 30.5 µM (inactive) and 40.1 µM (inactive) | 33 µM (inactive) and 34.1 µM (inactive) | 81.1 µM (inactive) | 40.6 µM (inactive) and 35.5 µM (inactive) | 21 µM (inactive) and 22.2 µM (inactive) | 41.5 µM (inactive) | 92 µM (inactive) | 53.1 µM (inactive) | 41.5 µM (inactive) and 32.9 µM (inactive) | 32 µM (inactive) and 46.6 µM (inactive) | 34.8 µM (inactive) and 26.7 µM (inactive) | 44.5 µM (inactive) and 31.8 µM (inactive) | 46.2 µM (inactive) and 38.5 µM (inactive) | 57 µM (inactive) and 47 µM (inactive) | 17 µM (inactive) and 32.1 µM (inactive) | 18.5 µM (inactive) and 16.3 µM (inactive) | 20.7 µM (inactive) | 30.6 µM (inactive) and 32.9 µM (inactive) | – |
| N#C/C(C(=S)Nc1ccccc1)=C(/N)N1CCCC1 | > 100 µM (inactive) | > 100 µM (inactive) | > 100 µM (inactive) | > 100 µM (inactive) | > 100 µM (inactive) | > 100 µM (inactive) | > 100 µM (inactive) | > 100 µM (inactive) | > 100 µM (inactive) | – | > 100 µM (inactive) | > 100 µM (inactive) | > 100 µM (inactive) | > 100 µM (inactive) | 27.9 µM (inactive) | 62.5 µM (inactive) | > 100 µM (inactive) | > 100 µM (inactive) | > 100 µM (inactive) | > 100 µM (inactive) |
| COC(=O)C1(C(=O)OC)CC2=C(S(=O)(=O)c3ccccc3)C[C@H](S(=O)(=O)c3ccccc3)[C@H]2C1 | > 100 µM (inactive) | 27.2 µM (inactive) | > 100 µM (inactive) | > 100 µM (inactive) | > 100 µM (inactive) | > 100 µM (inactive) | – | 13.8 µM (inactive) | > 100 µM (inactive) | 37.8 µM (inactive) | 82.8 µM (inactive) | > 100 µM (inactive) | > 100 µM (inactive) | 39.4 µM (inactive) | > 100 µM (inactive) | 19.6 µM (inactive) | 46.7 µM (inactive) | > 100 µM (inactive) | 19.9 µM (inactive) | 23.3 µM (inactive) |
| Cc1ccc(-c2sc(-c3ccc(C)cc3)c3c2C2CCC3C2)cc1 | > 50 µM (inactive) | > 50 µM (inactive) | > 50 µM (inactive) | > 50 µM (inactive) | > 50 µM (inactive) | > 50 µM (inactive) | > 50 µM (inactive) | > 50 µM (inactive) | > 50 µM (inactive) | – | > 50 µM (inactive) | > 50 µM (inactive) | > 50 µM (inactive) | > 50 µM (inactive) | > 50 µM (inactive) | > 50 µM (inactive) | > 50 µM (inactive) | > 50 µM (inactive) | > 50 µM (inactive) | > 50 µM (inactive) |
| O=C(O)CSCC(=O)O | > 100 µM (inactive) | > 100 µM (inactive) | > 100 µM (inactive) | > 100 µM (inactive) | > 100 µM (inactive) | > 100 µM (inactive) | – | > 100 µM (inactive) | > 100 µM (inactive) | > 100 µM (inactive) | > 100 µM (inactive) | > 100 µM (inactive) | > 100 µM (inactive) | > 100 µM (inactive) | > 100 µM (inactive) | > 100 µM (inactive) | > 100 µM (inactive) | > 100 µM (inactive) | > 100 µM (inactive) | > 100 µM (inactive) |
| COc1ccc2c(c1)N=C1CSC(c3c(Cl)cccc3[N+](=O)[O-])N1C2 (stereo not given) | – | 35.4 µM (inactive) | 54.2 µM (inactive) | > 100 µM (inactive) | 35.5 µM (inactive) | 0.918 µM (active) | 37.2 µM (inactive) | 29.5 µM (inactive) | 51.5 µM (inactive) | 25.1 µM (inactive) | 19.4 µM (inactive) | 40.3 µM (inactive) | 38.2 µM (inactive) | 29.8 µM (inactive) | 37.8 µM (inactive) | 40 µM (inactive) | 20 µM (inactive) | 56.6 µM (inactive) | 62.8 µM (inactive) | 22.4 µM (inactive) |
